The structures appear in SMILES notation. Converted amounts (≈) assume the structure as drawn. The source made the active and inactive calls. The calls are words filed in the database; no cut-off is given here.

Results on 27 compounds are retold here after ChEMBL document CHEMBL1949568, “Discovery of diphenyl lactam derivatives as N-type calcium channel blockers” (Bioorg Med Chem Lett, 2012).

A short description of data set [1]: Aqueous solubility of the compound at pH 7. In kind it is physicochemical.
A short description of data set [2]: Inhibition of N-type calcium channel by FLIPR assay.
Data set [3] relates to Rattus norvegicus. Nature of the data set: Antinociceptive activity in rat capsaicin model of secondary mechanical hyperalgesia assessed as inhibition of tactile allodynia at 150 mg/kg, po. The data set is classed as functional, organism-based. On the set-up: dose 150 mg/kg.
A short description of data set [4]: Half life in rat at 5 umol/kg, iv and 30 umol/kg, po. Particulars: in vivo. The data set is classed as ADME, organism-based.
Data set [5] can be described thus: Volume of distribution at steady state in rat at 5 umol/kg, iv and 30 umol/kg, po. In kind it is ADME, organism-based. Particulars: in vivo, read-out: Vdss.
The nature of data set [6]: Plasma clearance in rat at 5 umol/kg, iv and 30 umol/kg, po. In kind it is ADME, organism-based.
The nature of data set [7]: Oral bioavailability in rat at 30 umol/kg. Particulars: in vivo. The data set is classed as ADME, organism-based.
Data set [8] in a line: AUC in rat at 30 umol/kg, po. In kind it is ADME, organism-based. The note with it: plasma.
A short description of data set [9]: Metabolic stability in rat liver microsomes assessed as compound remaining after 30 mins. Particulars: read-out: Stability. The data set is classed as ADME, Microsome. On the technique in general: Liver microsomes are vesicles of endoplasmic reticulum, rich in cytochrome P450 enzymes.
The nature of data set [10]: Metabolic stability in human liver microsomes assessed as compound remaining after 30 mins. In kind it is ADME, Microsome. Particulars: read-out: Stability.
The nature of data set [11]: Half life in rat at 3 umol/kg, po. In kind it is ADME, organism-based. The note with it: in vivo.
The test system of data set [12] is Rattus norvegicus. Nature of the data set: Volume of distribution at steady state in rat at 3 umol/kg, po. The data set is classed as ADME, organism-based. The note with it: in vivo.
A short description of data set [13]: Plasma clearance in rat at 3 umol/kg, po. The data set is classed as ADME, organism-based.
A short description of data set [14]: Oral bioavailability in rat at 3 umol/kg. In kind it is ADME, organism-based. The note with it: in vivo.
Data set [15] in a line: AUC in rat at 3 umol/kg, po. The data set is classed as ADME, organism-based. The note with it: plasma.
Data set [16] deals with Rattus norvegicus. The data set can be described thus: Antinociceptive activity in rat capsaicin model of secondary mechanical hyperalgesia assessed as inhibition of tactile allodynia at 30 mg/kg, po. The data set is classed as functional, organism-based. On the set-up: dose 30 mg/kg.

As a reminder, the solubility is the dissolved amount per volume that the medium holds. Low values mean a poorly soluble substance, high ones a readily soluble substance. What is called IC50 is the concentration needed to halve the response being measured. In general, pIC50 refers to the IC50 on a negative log10 scale, so that one unit is a factor of ten. For `O=C(CN1CCCC(c2ccc(F)cc2)(c2ccc(F)cc2)C1=O)N1CCN(Cc2cccc(C(F)(F)F)c2)CC1`, the solubility in [1] is < 25 µM. In data set [2], the IC50 was determined as 1.36 µM and the pIC50 was 5.87.

Consider `O=C(CN1CCC(c2ccccc2)(c2ccccc2)C1=O)N1CCN(Cc2c(Cl)cccc2Cl)CC1`, for which, in data set [1], the solubility is < 25 µM. In addition, in data set [2], the IC50 was found to be 0.9 µM and the pIC50 is on record as 6.04.

Consider `NCC1(CC(=O)O)CCCCC1`, for which the inhibition entry in data set [3] is “Active”.

With `O=C(CN1CCCC(c2ccccc2)(c2ccccc2)C1=O)N1CCN(C(c2ccc(F)cc2)c2ccc(F)cc2)CC1`, the solubility in data set [1] is < 25 µM. Moreover, in [2], the IC50 came to 2.36 µM and the pIC50 is listed as 5.63.

On to `O=C(CN1CCC(c2ccccc2)(c2ccccc2)C1=O)N1CCN(C(c2ccccc2)c2ccc(F)cc2)CC1` (stereo not drawn), for which, in data set [1], the solubility was < 25 µM. In [2], the IC50 is 0.45 µM and the negative-log IC50 (pIC50) amounted to 6.35.

One may read the half-life as the time in which the quantity being followed falls by half. The low end stands for fast loss, the high end for slow loss. By bioavailability is commonly meant dose-corrected exposure relative to a reference, in per cent. Low readings indicate little systemic uptake, high ones much systemic uptake. The term AUC denotes the area under the concentration-time curve, a measure of exposure. A higher AUC goes with more exposure. On to `O=C(CN1CCCC(c2ccccc2)(c2ccccc2)C1=O)N1CCC(c2ccccc2)(c2ccccc2)CC1`, for which the solubility in [1] is < 25 µM. Moreover, in data set [2], the IC50 came to 0.66 µM and the pIC50 worked out at 6.18. For the same compound, the half-life in data set [4] is 6.3 h. The Vd in [5] was found to be 11.4 L/kg. In data set [6], this compound showed a clearance of 45 mL/min/kg. Moreover, in [7], the bioavailability worked out at 50%. The AUC in data set [8] was determined as 2990 ng·h/mL.

One may read the CL/F as clearance divided by bioavailability, as obtained after extravascular dosing. Turning to `O=C(CN1CCCC(c2ccccc2)(c2ccccc2)C1=O)N1CCN(C(c2ccccc2)c2ccccc2)CC1`, the solubility in data set [1] is < 25 µM. In addition, in [2], the IC50 was determined as 1.38 µM and the pIC50 was found to be 5.86. In addition, the remaining at 0.5 h in data set [9] stood at 0.1%. Besides, in data set [10], the remaining at 0.5 h was 0.1%. In addition, in [11], the half-life was 5.2 h. The Vdss in data set [12] came out at 5.8 L/kg. The compound further showed a CL/F in [13] of 25 mL/min/kg. Moreover, in data set [14], the bioavailability turned out to be 16.6%. The AUC in [15] was determined as 186 ng·h/mL. Further, the inhibition entry in [16] is “Active”.

Regarding `O=C(CN1CCCC(c2ccccc2)(c2ccccc2)C1=O)N1CCC(C(c2ccccc2)c2ccccc2)CC1`, in data set [1], the solubility was < 25 µM. Besides, in data set [2], the half-inhibitory concentration (IC50) amounted to 2.61 µM and the pIC50 is reported as 5.58.

`O=C(CN1CCCC(c2ccccc2)(c2ccccc2)C1=O)N1CCC(c2ccccc2)(c2ccccc2)C1`: the solubility in [1] was < 25 µM. For the same compound, in data set [2], the IC50 worked out at 2.43 µM and the pIC50 stood at 5.61.

In the case of `O=C(CN1CCC(c2ccccc2)(c2ccccc2)C1=O)N1CCN(C(c2ccccc2)c2ccccc2)CC1`, the solubility in [1] was < 25 µM. In addition, in data set [2], the half-inhibitory concentration (IC50) turned out to be 0.72 µM and the pIC50 amounted to 6.14. Also, the remaining at 0.5 h in data set [9] was 0.4%. Besides, the half-life in data set [11] is 5.6 h. In data set [12], this compound came in with a Vdss of 6.9 L/kg. Moreover, the CL/F in [13] was 26.7 mL/min/kg. Also, in [14], the bioavailability is 16.4%. The AUC in data set [15] amounted to 159 ng·h/mL. Also, the inhibition entry in data set [16] was “Active”.

As to `O=C(CN1CCC(c2ccc(F)cc2)(c2ccc(F)cc2)C1=O)N1CCN(C(c2ccccc2)c2ccccc2)CC1`, in data set [1], the solubility was < 25 µM. In addition, the IC50 in data set [2] was 0.83 µM. Further, the pIC50 in data set [2] was 6.08. For the same compound, the remaining at 0.5 h stood at 2% in data set [9] and 2.5% in [10]. In data set [11], this compound gave a half-life of 7.2 h. The compound further displayed a Vdss in data set [12] of 13.2 L/kg. The CL/F in data set [13] is 36.7 mL/min/kg. In [14], the bioavailability was found to be 20.3%. Also, the AUC in data set [15] was 160 ng·h/mL. Further, the inhibition entry in [16] was “Active”.

With `O=C(CN1CCCC(c2ccccc2)(c2ccccc2)C1=O)N1CCN(Cc2cccc(Cl)c2)CC1`, the solubility in data set [1] is < 25 µM. Also, in data set [2], the 50% inhibitory concentration (IC50) is 1.32 µM and the negative-log IC50 (pIC50) was determined as 5.88.

For `O=C(CN1CCCC(c2ccccc2)(c2ccccc2)C1=O)N1CCCC(c2ccccc2)(c2ccccc2)C1`, the solubility in data set [1] is < 25 µM. Besides, in data set [2], the IC50 was found to be 0.81 µM and the pIC50 is listed as 6.09.

In the case of `O=C(CN1CCCC(c2ccccc2)(c2ccccc2)C1=O)N1CCN(Cc2ccc(C(F)(F)F)cc2)CC1`, the solubility in data set [1] was < 25 µM. In addition, in data set [2], the IC50 worked out at 1.38 µM and the negative logarithm of the IC50 (pIC50) worked out at 5.86.

As for `O=C(CN1CCCC(c2ccccc2)(c2ccccc2)C1=O)N1CCc2ccc(C(F)(F)F)cc2C1`, the solubility in data set [1] is < 25 µM. In addition, in [2], the IC50 is 4.44 µM and the pIC50 is on record as 5.35.

On to `O=C(CN1CCC(c2ccccc2)(c2ccccc2)C1=O)N1CCN(Cc2cccc(C(F)(F)F)c2)CC1`, for which the solubility in data set [1] is < 25 µM. Further, in data set [2], the IC50 is 1.03 µM and the pIC50 stood at 5.99. In data set [9], the remaining at 0.5 h was determined as 0.1%. Also, the remaining at 0.5 h in [10] worked out at 0.3%.

Regarding `O=C(CN1CCC(c2ccccc2)(c2ccccc2)C1=O)N1CCN(Cc2ccc(F)cc2)CC1`, the solubility in data set [1] was found to be 57 µM (≈ 26.9 µg/mL). Further, in data set [2], the IC50 was found to be 2.22 µM and the pIC50 is reported as 5.65.

On to `O=C(CN1CCC(c2ccccc2)(c2ccccc2)C1=O)N1CCN(C(c2ccccc2)c2ccc(Cl)cc2)CC1` (stereo not drawn), for which the solubility in [1] was < 25 µM. Besides, in [2], the IC50 worked out at 1.01 µM and the pIC50 is 5.99.

In the case of `O=C(CN1CCCC(c2ccccc2)(c2ccccc2)C1=O)N1CCN(Cc2ccc(Cl)cc2Cl)CC1`, the solubility in data set [1] was < 25 µM. In data set [2], the IC50 is 1.8 µM and the pIC50 came out at 5.75.

On to `O=C(CN1CCCC(c2ccccc2)(c2ccccc2)C1=O)N1CCN(Cc2cccc(C(F)(F)F)c2)CC1`, for which the solubility in data set [1] was < 25 µM. Also, in [2], the IC50 was 0.93 µM and the pIC50 worked out at 6.03. Moreover, the remaining at 0.5 h in data set [9] was determined as 1.2%. Moreover, in data set [10], the remaining at 0.5 h came to 0.1%. For the same compound, in [4], the half-life was 2.7 h. Moreover, in data set [5], the Vd is 5.9 L/kg. Also, in [6], the clearance was 41.7 mL/min/kg. The compound further registered a bioavailability in data set [7] of 15.6%. Besides, the AUC in data set [8] came out at 1000 ng·h/mL.

As to `O=C(CN1CCCC(c2ccccc2)(c2ccccc2)C1=O)N1CCC(NC(c2ccccc2)c2ccccc2)CC1`, the solubility in data set [1] was < 25 µM. In data set [2], the IC50 turned out to be 0.81 µM and the pIC50 is reported as 6.09. For the same compound, the remaining at 0.5 h in data set [9] was < 0.1%. In addition, the remaining at 0.5 h in [10] was < 0.1%.

With `O=C(CN1CCC(c2ccccc2)(c2ccccc2)C1=O)N1CCN(Cc2ccc(Cl)cc2Cl)CC1`, the solubility in [1] was < 25 µM. Further, in data set [2], the IC50 was 0.52 µM and the pIC50 stood at 6.28.

Take `O=C(CN1CCC(c2ccc(F)cc2)(c2ccc(F)cc2)C1=O)N1CCN(Cc2cccc(C(F)(F)F)c2)CC1`: the solubility in [1] was < 25 µM. In data set [2], the half-inhibitory concentration (IC50) came out at 1.01 µM and the pIC50 is 6.

For the compound `O=C(CN1CCCC(c2ccc(F)cc2)(c2ccc(F)cc2)C1=O)N1CCN(C(c2ccccc2)c2ccccc2)CC1`, the solubility in [1] is < 25 µM. Further, in data set [2], the IC50 was 4.61 µM and the pIC50 stood at 5.34.

With `O=C(CN1CCCC(c2ccccc2)(c2ccccc2)C1=O)N1CCC(C(O)(c2ccccc2)c2ccccc2)CC1`, the solubility in [1] was < 25 µM. Also, in data set [2], the IC50 came out at 1.74 µM and the pIC50 is 5.76.

For `O=C(CN1CCC(c2ccccc2)(c2ccccc2)C1=O)N1CCN(C(c2ccc(F)cc2)c2ccc(F)cc2)CC1`, the solubility in [1] is < 25 µM. In data set [2], the IC50 turned out to be 0.43 µM and the pIC50 is 6.37.

As for `O=C(CN1CCCC(c2ccccc2)(c2ccccc2)C1=O)N1CC(c2ccc(C(F)(F)F)cc2)C1`, the solubility in data set [1] is < 25 µM. For the same compound, in data set [2], the IC50 was found to be 3.07 µM and the pIC50 worked out at 5.51.
